The values below come from patent US9783536B2, “Nitrogen-containing heterocyclic compound or salt thereof” (FUJIFILM Corporation, priority 2013, dated 2017).

The structures appear in SMILES notation. pIC50: −log10 of the molar value.

One assay addresses T1, human PI3Kα protein (Homo sapiens, UniProt P42336).
T1 construct: purchased Carna Biosciences, Inc; host or cells: baculovirus expression system
The assay is described as follows: PI3Kα enzyme assay (ADP-Glo). The format is biochemical. The following applies: read-out: PI3Kα enzyme inhibitory activity. In a few lines:
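Biotinylated human PI3Kα (baculovirus-expressed, 4.5 nmol/L) pre-incubated 15 min with compound in Tris-HCl pH 7.5, MgCl2, BSA; reaction 60 min at 25° C with 50 μmol/L PIP2 and 100 μmol/L ATP final. ADP quantified by ADP-Glo luminescence; IC50 calculated.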
Background: In ADP-Glo the light output rises with the ADP produced.

Assay [1] addresses T2, GST fusion human ERK2 protein (Homo sapiens, UniProt P28482).
T2 construct: purchased Carna Biosciences, Inc; host or cells: E. coli expression system
The assay is described as follows: ERK2 enzyme assay (2). It counts as biochemical. The following applies: read-out: ERK2 enzyme inhibitory activity (2). The gist of the method: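 GST-tagged human ERK2 expressed in E. coli (1.25 nmol/L) was preincubated with compound for 15 min at room temperature in pH 7.5 Hepes buffer with MgCl2, DTT and Brij35. Reaction with FL-Peptide 8 (final 4.25 μmol/L) and ATP (final 1 mmol/L) ran 120 min at 25 °C; EDTA stopped it, and phosphorylated peptide was quantified by mobility-shift separation to derive IC50.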

T2 sequence (P28482 whole entry, the tested form may be a part): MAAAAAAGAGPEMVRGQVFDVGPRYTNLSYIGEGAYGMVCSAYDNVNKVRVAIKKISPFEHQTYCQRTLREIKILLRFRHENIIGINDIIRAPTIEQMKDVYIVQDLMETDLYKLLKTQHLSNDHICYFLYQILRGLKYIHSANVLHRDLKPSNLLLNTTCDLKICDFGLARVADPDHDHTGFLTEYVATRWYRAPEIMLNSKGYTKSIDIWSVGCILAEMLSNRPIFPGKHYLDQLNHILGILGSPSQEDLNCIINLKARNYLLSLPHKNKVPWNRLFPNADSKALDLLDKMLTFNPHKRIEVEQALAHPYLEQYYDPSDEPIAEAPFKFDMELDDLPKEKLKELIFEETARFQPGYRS
T1 sequence (P42336 whole entry): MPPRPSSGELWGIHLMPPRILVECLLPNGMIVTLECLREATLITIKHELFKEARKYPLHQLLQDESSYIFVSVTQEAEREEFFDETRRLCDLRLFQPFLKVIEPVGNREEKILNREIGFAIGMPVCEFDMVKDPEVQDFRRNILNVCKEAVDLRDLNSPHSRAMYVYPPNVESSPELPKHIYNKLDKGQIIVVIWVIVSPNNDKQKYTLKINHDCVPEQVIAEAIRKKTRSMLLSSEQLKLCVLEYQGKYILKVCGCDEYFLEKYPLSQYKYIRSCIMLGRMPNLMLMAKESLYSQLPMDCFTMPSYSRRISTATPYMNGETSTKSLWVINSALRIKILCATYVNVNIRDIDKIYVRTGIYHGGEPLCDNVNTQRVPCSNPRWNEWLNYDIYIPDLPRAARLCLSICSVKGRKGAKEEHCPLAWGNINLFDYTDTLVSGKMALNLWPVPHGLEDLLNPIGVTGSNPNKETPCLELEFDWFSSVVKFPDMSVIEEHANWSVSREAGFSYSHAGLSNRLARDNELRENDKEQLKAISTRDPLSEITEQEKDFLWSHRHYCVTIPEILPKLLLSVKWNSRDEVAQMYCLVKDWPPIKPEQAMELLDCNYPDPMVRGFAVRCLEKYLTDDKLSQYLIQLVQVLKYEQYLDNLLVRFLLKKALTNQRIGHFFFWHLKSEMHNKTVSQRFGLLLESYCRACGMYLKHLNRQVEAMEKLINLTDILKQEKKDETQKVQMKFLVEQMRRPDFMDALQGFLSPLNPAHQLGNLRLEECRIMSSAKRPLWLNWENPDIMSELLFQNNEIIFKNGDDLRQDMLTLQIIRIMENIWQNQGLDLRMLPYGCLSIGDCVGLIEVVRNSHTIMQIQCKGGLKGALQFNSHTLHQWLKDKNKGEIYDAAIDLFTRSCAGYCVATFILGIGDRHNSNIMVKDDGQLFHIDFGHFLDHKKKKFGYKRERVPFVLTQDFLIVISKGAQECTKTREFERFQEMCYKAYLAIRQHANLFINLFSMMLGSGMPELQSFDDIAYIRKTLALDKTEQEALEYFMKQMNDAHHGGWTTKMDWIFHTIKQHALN
T1 sequence (P27986 whole entry partner): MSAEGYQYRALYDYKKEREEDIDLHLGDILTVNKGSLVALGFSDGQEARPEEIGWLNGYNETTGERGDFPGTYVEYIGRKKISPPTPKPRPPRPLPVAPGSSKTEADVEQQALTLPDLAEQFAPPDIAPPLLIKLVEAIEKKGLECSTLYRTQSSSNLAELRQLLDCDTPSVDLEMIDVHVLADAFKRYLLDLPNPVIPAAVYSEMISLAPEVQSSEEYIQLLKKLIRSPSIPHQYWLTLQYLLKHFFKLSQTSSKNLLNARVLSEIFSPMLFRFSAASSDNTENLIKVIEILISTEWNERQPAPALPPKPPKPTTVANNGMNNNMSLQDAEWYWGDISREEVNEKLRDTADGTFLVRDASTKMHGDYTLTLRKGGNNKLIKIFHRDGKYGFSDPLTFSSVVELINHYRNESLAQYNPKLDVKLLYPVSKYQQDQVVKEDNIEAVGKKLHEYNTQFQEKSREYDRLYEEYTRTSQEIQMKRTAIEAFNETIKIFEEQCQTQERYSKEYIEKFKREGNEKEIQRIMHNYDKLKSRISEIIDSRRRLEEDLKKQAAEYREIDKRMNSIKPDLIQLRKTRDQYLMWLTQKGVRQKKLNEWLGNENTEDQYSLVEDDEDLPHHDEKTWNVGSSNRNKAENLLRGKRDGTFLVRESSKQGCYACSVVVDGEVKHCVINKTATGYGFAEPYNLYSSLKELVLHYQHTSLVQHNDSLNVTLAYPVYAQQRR

With `CC(C)c1cnnc(Nc2ccc3ncc(C4=CCNC4)cc3n2)c1` [Example 0906, 7-(2,5-Dihydro-1H-pyrrol-3-yl)-N-(5-isopropylpyridazin-3-yl)-1,5-naphthyridine-2-amine], the pIC50 is 5.00 to 6.00 at human PI3Kα protein and above 6.00 in assay [1].

For the compound `CC(C)c1cnnc(Nc2ccc3ncc(C4=CCN(C(=O)N(C)C)C4)cc3n2)c1` [Example 0907, 3-(6-((5-Isopropylpyridazin-3-yl)amino)-1,5-naphthyridin-3-yl)-N,N-dimethyl-2,5-dihydro-1H-pyrrole-1-carboxamide], the pIC50 (at human PI3Kα protein; in assay [1]) was above 6.00 each time.

With `CC(C)c1cnnc(Nc2ccc3ncc(C4=CCN(S(C)(=O)=O)C4)cc3n2)c1` [Example 0908, N-(5-Isopropylpyridazin-3-yl)-7-(1-(methylsulfonyl)-2,5-dihydro-1H-pyrrol-3-yl)-1,5-naphthyridine-2-amine], the pIC50 (on human PI3Kα protein; in assay [1]) was above 6.00 in each case.

Turning to `CC(C)c1cnnc(Nc2ccc3ncc(-c4cn(C)nc4CN4CCN(c5ccncc5)CC4)cc3n2)c1` [Example 0909], the pIC50 (at human PI3Kα protein; in assay [1]) was above 6.00 each time.

For `CC(C)c1cnnc(Nc2ccc3ncc(-c4cn(C)nc4CN4CCN(c5cccnc5)CC4)cc3n2)c1` [Example 0910], the pIC50 (at human PI3Kα protein; in assay [1]) was above 6.00 each time.

As to `CC(C)c1cnnc(Nc2ccc3ncc(-c4cn(C)nc4COC4COC4)cc3n2)c1` [Example 0911, N-(5-isopropylpyridazin-3-yl)-7-(1-methyl-3-((oxetan-3-yloxy)methyl)-1H-pyrazol-4-yl)-1,5-naphthyridine-2-amine], the pIC50 (at human PI3Kα protein; in assay [1]) was above 6.00 each time.

Turning to `CC(C)c1cnnc(Nc2ccc3ncc(-c4cn(C)nc4CN4CCN(C)CC4)cc3n2)c1` [Example 0912, N-(5-isopropylpyridazin-3-yl)-7-(1-methyl-3-((4-methylpiperazin-1-yl)methyl)-1H-pyrazol-4-yl)-1,5-naphthyridine-2-amine], the pIC50 (on human PI3Kα protein; in assay [1]) was above 6.00 throughout.

`CC(C)c1cnnc(Nc2ccc3ncc(-c4cn(C)nc4COc4cccnn4)cc3n2)c1` [Example 0913, N-(5-isopropylpyridazin-3-yl)-7-(1-methyl-3-((pyridazin-3-yloxy)methyl)-1H-pyrazol-4-yl)-1,5-naphthyridine-2-amine]: the pIC50 (at human PI3Kα protein; in assay [1]) was above 6.00 in each case.

`COc1c(-c2cnn(C)c2)cnc2ccc(Nc3cc(C(C)C)cnn3)nc12` [Example 0914, N-(5-isopropylpyridazin-3-yl)-8-methoxy-7-(1-methyl-1H-pyrazol-4-yl)-1,5-naphthyridine-2-amine]: the pIC50 (at human PI3Kα protein; in assay [1]) was above 6.00 in each case.

On to `CCC(C)c1cnnc(Nc2ccc3ncc(-c4cn(C)nc4C)cc3n2)c1` (stereo not shown) [Example 0916], for which the pIC50 (on human PI3Kα protein; in assay [1]) was above 6.00 in each case.

Take `Cc1nn(C)cc1-c1cnc2ccc(Nc3cc(C(C)(C)C)cnn3)nc2c1` [Example 0917]: the pIC50 (on human PI3Kα protein; in assay [1]) was above 6.00 throughout.

As to `CCCc1cnnc(Nc2ccc3ncc(-c4cnn(C)c4)cc3n2)c1` [Example 0918], the pIC50 (at human PI3Kα protein; in assay [1]) was above 6.00 throughout.

For `CCOC(C)c1cnnc(Nc2ccc3ncc(-c4cnn(C)c4)cc3n2)c1` (stereo not shown) [Example 0920], the pIC50 (at human PI3Kα protein; in assay [1]) was above 6.00 in each case.

Consider `CCOC(C)c1cnnc(Nc2ccc3ncc(-c4cn(C)nc4C)cc3n2)c1` (stereo not shown) [Example 0921], for which the pIC50 (at human PI3Kα protein; in assay [1]) was above 6.00 each time.

For `COCc1cnnc(Nc2ccc3ncc(-c4cnn(C)c4)cc3n2)c1` [Example 0922], the pIC50 at human PI3Kα protein was 5.00 to 6.00; in assay [1], above 6.00.

For `COCc1cnnc(Nc2ccc3ncc(-c4cn(C)nc4C)cc3n2)c1` [Example 0923], the pIC50 (at human PI3Kα protein; in assay [1]) was above 6.00 throughout.

For `CN(C)S(=O)(=O)Cc1cnnc(Nc2ccc3ncc(-c4cnn(C)c4)cc3n2)c1` [Example 0924], the pIC50 (at human PI3Kα protein; in assay [1]) was above 6.00 in each case.

In the case of `Cc1nn(C)cc1-c1cnc2ccc(Nc3cc(CS(=O)(=O)N(C)C)cnn3)nc2c1` [Example 0925, 1-(6-((7-(1,3-Dimethyl-1H-pyrazol-4-yl)-1,5-naphthyridin-2-yl)amino)pyridazin-4-yl)-N,N-dimethylmethane sulfonamide], the pIC50 (on human PI3Kα protein; in assay [1]) was above 6.00 throughout.

As to `Cc1nn(C)cc1-c1cnc2ccc(Nc3cc(C4CCCCC4)cnn3)nc2c1` [Example 0926, N-(5-cyclohexylpyridazin-3-yl)-7-(1,3-dimethyl-1H-pyrazol-4-yl)-1,5-naphthyridine-2-amine], the pIC50 (at human PI3Kα protein; in assay [1]) was above 6.00 in each case.

On to `Cn1cc(-c2cnc3ccc(Nc4cc(C5CCCCC5)cnn4)nc3c2)cn1` [Example 0927, N-(5-cyclohexylpyridazin-3-yl)-7-(1-methyl-1H-pyrazol-4-yl)-1,5-naphthyridine-2-amine], for which the pIC50 (at human PI3Kα protein; in assay [1]) was above 6.00 each time.

For the compound `CC(C)c1cnnc(Nc2ccc3ncc(-c4cnn(CC#N)c4)cc3n2)c1` [Example 0928, 2-(4-(6-((5-isopropylpyridazin-3-yl)amino)-1,5-naphthyridin-3-yl)-1H-pyrazol-1-yl)acetonitrile], the pIC50 (at human PI3Kα protein; in assay [1]) was above 6.00 each time.

Consider `CC(C)c1cnnc(Nc2ccc3ncc(Br)cc3n2)c1` [Example 0929, 7-bromo-N-(5-isopropylpyridazin-3-yl)-1,5-naphthyridine-2-amine], for which the values for the pIC50 (at human PI3Kα protein; in assay [1]) were 5.00 to 6.00 and above 6.00, respectively.

Regarding `COC1CN(c2nn(C)cc2-c2cnc3ccc(Nc4cc(C(C)C)cnn4)nc3c2)C1` [Example 0930], the pIC50 (on human PI3Kα protein; in assay [1]) was above 6.00 each time.

With `CC(C)c1cnnc(Nc2ccc3ncc(-c4cn(C)nc4Br)cc3n2)c1` [Example 0931], the pIC50 (on human PI3Kα protein; in assay [1]) was above 6.00 each time.

For `CC(C)c1cnnc(Nc2ccc3ncc(-c4cn(C)nc4N4CCC4)cc3n2)c1` [Example 0932], the pIC50 (at human PI3Kα protein; in assay [1]) was above 6.00 throughout.

Regarding `COCCOC1CN(c2nn(C)cc2-c2cnc3ccc(Nc4cc(C(C)C)cnn4)nc3c2)C1` [Example 0933], the pIC50 (at human PI3Kα protein; in assay [1]) was above 6.00 throughout.

In the case of `CC(C)c1cnnc(Nc2ccc3ncc(-c4cn(C)nc4N4CC5(COC5)C4)cc3n2)c1` [Example 0934], the pIC50 (on human PI3Kα protein; in assay [1]) was above 6.00 each time.

Turning to `CC(C)c1cnnc(Nc2ccc3ncc(-c4cn(C)nc4N4CCC(=O)N(C)CC4)cc3n2)c1` [Example 0935, 1-(4-(6-((5-isopropylpyridazin-3-yl)amino)-1,5-naphthyridin-3-yl)-1-methyl-1H-pyrazol-3-yl)-4-methyl-1,4-diazepan-5-one], the pIC50 on human PI3Kα protein is above 6.00; in assay [1] it was 5.00 to 6.00.

`CC(C)c1cnnc(Nc2ccc3ncc(-c4cn(C)nc4N4CCCCC4)cc3n2)c1` [Example 0936]: the pIC50 (at human PI3Kα protein; in assay [1]) was above 6.00 each time.

For `CC(C)c1cnnc(Nc2ccc3ncc(-c4cn(C)nc4N4CCCC4)cc3n2)c1` [Example 0937], the pIC50 (at human PI3Kα protein; in assay [1]) was above 6.00 each time.

On to `CC(C)c1cnnc(Nc2ccc3ncc(-c4cn(C)nc4N(C)C)cc3n2)c1` [Example 0938, 7-(3-(Dimethylamino)-1-methyl-1H-pyrazol-4-yl)-N-(5-isopropylpyridazin-3-yl)-1,5-naphthyridine-2-amine], for which the pIC50 (on human PI3Kα protein; in assay [1]) was above 6.00 in each case.

Consider `CC(C)c1cnnc(Nc2ccc3ncc(-c4cn(C)nc4NC4CCC4)cc3n2)c1` [Example 0939], for which the pIC50 (at human PI3Kα protein; in assay [1]) was above 6.00 each time.

As to `CC(C)c1cnnc(Nc2ccc3ncc(-c4cn(C)nc4NC4CCOC4)cc3n2)c1` (stereo not shown) [Example 0940], the pIC50 (at human PI3Kα protein; in assay [1]) was above 6.00 in each case.

Turning to `CC(C)c1cnnc(Nc2ccc3ncc(-c4cn(C)nc4N4CC5(CCO5)C4)cc3n2)c1` [Example 0941], the pIC50 (on human PI3Kα protein; in assay [1]) was above 6.00 each time.

With `CC(C)c1cnnc(Nc2ccc3ncc(-c4cn(C)nc4CN4CCOCC4)cc3n2)c1` [Example 0942, N-(5-isopropylpyridazin-3-yl)-7-(1-methyl-3-(morpholinomethyl)-1H-pyrazol-4-yl)-1,5-naphthyridine-2-amine], the pIC50 (on human PI3Kα protein; in assay [1]) was above 6.00 in each case.

As for `CC(C)c1cnnc(Nc2ccc3ncc(-c4cn(C)nc4N(C)C4COC4)cc3n2)c1` [Example 0943], the pIC50 (at human PI3Kα protein; in assay [1]) was above 6.00 throughout.

As to `CCN(CC)c1nn(C)cc1-c1cnc2ccc(Nc3cc(C(C)C)cnn3)nc2c1` [Example 0944], the pIC50 (on human PI3Kα protein; in assay [1]) was above 6.00 each time.

`COCCN(C)c1nn(C)cc1-c1cnc2ccc(Nc3cc(C(C)C)cnn3)nc2c1` [Example 0945]: the pIC50 (at human PI3Kα protein; in assay [1]) was above 6.00 throughout.

Regarding `COCCNc1nn(C)cc1-c1cnc2ccc(Nc3cc(C(C)C)cnn3)nc2c1` [Example 0946], the pIC50 (on human PI3Kα protein; in assay [1]) was above 6.00 each time.

With `COCCN(CCOC)c1nn(C)cc1-c1cnc2ccc(Nc3cc(C(C)C)cnn3)nc2c1` [Example 0947], the pIC50 (at human PI3Kα protein; in assay [1]) was 5.00 to 6.00 in each case.

Regarding `CC(C)c1cnnc(Nc2ccc3ncc(-c4cn(C)nc4NC4CCCC4)cc3n2)c1` [Example 0948], the pIC50 (at human PI3Kα protein; in assay [1]) was above 6.00 each time.
